Results taken from publication PMC2607018, “Iodine Atoms: A New Molecular Feature for the Design of Potent Transthyretin Fibrillogenesis Inhibitors” (PLoS ONE, 2009).
pIC50: −log10 of the molar value.

What follows are molecules tested against TTR variant Y78F (Homo sapiens, UniProt P02766, Y98F) (assay: Kinetic turbidity assay of acid induced fibril formation). Settings: fibrillogenesis inhibition assay, effect of iodination; read-out: Inhibitory efficiency, rough screening (Figure 3, measure not given).
Assay type: biochemical
Source text: Two different parameters can be derived from this kinetic test. The IC50 value is the inhibitor concentration at which the initial rate of fibril formation is half than that in the absence of inhibitor. In turn, RA (%) can be defined as the percent reduction of fibril formation rate at high inhibitor concentration relative to the rate at zero concentration of tested compound.
An in vitro turbidimetric test in a high troughput mode was used to assess the fibrillogenesis inhibition potency of the compounds of the library. The mutant protein TTRY78F was incubated with various concentrations of test compounds in 96 well microplates. After lowering the pH of the solutions to 4.2, the incubation was extended for 1.5 h while recording the absorbance at 340 nm at 1 min intervals. […] (Figure S1).
The mutant Y78F TTR protein (0.4 mg.mL^-1) was incubated for 30 min (pH 7.6, 37 °C) with 6 concentrations of test compounds ranging from 0 to 40 µM in 96-well microplates.
IC50% value is the inhibitor concentration at which the initial rate of fibril formation is half of that in the absence of inhibitor. RA(%) is the percentage of reduction in fibril formation rate induced by a given concentration of test compound relative to the rate of experiments at zero concentration of test compound.

With `O=C(O)c1ccc(-c2ccccc2)cc1` [Biphenyl carboxylic, reference compound] as the molecule, how does the pIC50 read?
Its pIC50 is 4.31.

With `CC(C(=O)O)c1ccc(-c2ccccc2)c(F)c1` (centres unmarked) [Flurbiprofen, reference compound] as the molecule, how does the pIC50 read?
Its pIC50 is less than 4.00.

With `O=C(O)c1ccc(Oc2ccccc2)cc1` [Phenoxybenzoic, reference compound] as the molecule, how does the pIC50 read?
Its pIC50 is 4.54.

With `O=C(O)c1ccccc1O` [reference compound] as the molecule, how does the pIC50 read?
Its pIC50 is less than 4.00.

Same assay, conditions: inhibitor concentration at which the initial rate of fibril formation is half; Y78F TTR 0.4 mg/mL, pH 4.2, 37 °C; read-out: Kinetic turbidity assay IC50

How did the pIC50 turn out when `Nc1ccc(-c2ccc(F)cc2F)cc1C(=O)O` [5a, 2’,4’-difluoro-4-amino-[1,1’]-biphenyl-3-carboxylic acid] was run?
The pIC50 was less than 4.30.

`COC(=O)c1cc(-c2ccc(F)cc2F)cc(I)c1O` [3b, 2’,4’-difluoro-4-hydroxy-5-iodo-[1,1’]-biphenyl-3-carboxylic methyl ester] was tested. Which pIC50 did it give?
Its pIC50 is 5.21.

How did the pIC50 turn out when `COC(=O)[C@H](C)NC(=O)c1cc(-c2ccc(F)cc2F)ccc1O` [10a, N-[2’,4’-difluoro-4-hydroxy-[1,1’]-biphenyl-3-carbonyl]-L-alanine methyl ester] was run?
Its pIC50 is less than 4.30.

`COC(=O)C(CC(=O)O)NC(=O)c1cc(-c2ccc(F)cc2F)cc(I)c1O` [17b, N-[2’,4’-difluoro-4-hydroxy-5-iodo-[1,1’]-biphenyl-3-carbonyl]-L-aspartic α-methyl ester] was tested. Which pIC50 did it give?
The pIC50 was 5.39.

With `CCOC(=O)c1cc(-c2ccc(F)cc2F)cc(I)c1O` [4b] as the molecule, how does the pIC50 read?
The pIC50 was 5.16.

`O=C(O)CC(NC(=O)c1cc(-c2ccc(F)cc2F)cc(I)c1O)C(=O)O` [16b, N-[2’-,4’-difluoro-4-hydroxy-5-iodo-[1,1’]-biphenyl-3-carbonyl]-L-aspartic] was tested. Which pIC50 did it give?
The pIC50 was 5.28.

With `O=C(O)CNC(=O)c1cc(-c2ccc(F)cc2F)ccc1O` [8a, N-[2’,4’-difluoro-4-hydroxy-[1,1’]-biphenyl-3-carbonyl]-glycine] as the molecule, how does the pIC50 read?
The pIC50 was less than 4.30.

With `O=C(O)CNC(=O)c1cc(-c2ccc(F)cc2F)cc(I)c1O` [8b, N-[2’-,4’-difluoro-4-hydroxy-5-iodo-[1,1’]-biphenyl-3-carbonyl]-glycine] as the molecule, how does the pIC50 read?
Its pIC50 is 4.95.

How did the pIC50 turn out when `COC(=O)c1cc(-c2ccc(F)cc2F)ccc1O` [3a, 2’,4’-difluoro-4-hydroxy-[1,1’]-biphenyl-3-carboxylic methyl ester] was run?
The pIC50 was less than 4.30.

With `O=C(N[C@@H](CO)C(=O)O)c1cc(-c2ccc(F)cc2F)cc(I)c1O` [14b, N-[2’,4’-difluoro-4-hydroxy-5-iodo-[1,1’]-biphenyl-3-carbonyl]–L-serine] as the molecule, how does the pIC50 read?
Its pIC50 is 5.43.

`Nc1c(I)cc(-c2ccc(F)cc2F)cc1C(=O)O` [5b, 2’,4’-difluoro-4-amino-3-iodo-[1,1’]-biphenyl-3-carboxylic acid] was tested. Which pIC50 did it give?
The pIC50 was 4.79.

`COC(=O)c1cc(-c2ccc(F)cc2F)cc(I)c1N` [6b, 2’,4’-difluoro-4-amino-3-iodo-[1,1’]-biphenyl-3-carboxylic acid methyl ester] was tested. Which pIC50 did it give?
Its pIC50 is 5.12.

How did the pIC50 turn out when `COC(=O)c1cc(-c2ccc(F)cc2F)ccc1N` [6a, 2’,4’-difluoro-4-amino-[1,1’]-biphenyl-3-carboxylic acid methyl ester] was run?
Its pIC50 is 4.39.

`CC(C)CC(NC(=O)c1cc(-c2ccc(F)cc2F)cc(I)c1O)C(=O)OC(C)(C)C` [13b, N-[2’-,4’-difluoro-4-hydroxy-5-iodo-[1,1’]-biphenyl-3-carbonyl)-L-leucine tert-butyl ester] was tested. Which pIC50 did it give?
Its pIC50 is less than 4.30.

`COC(=O)[C@H](CO)NC(=O)c1cc(-c2ccc(F)cc2F)ccc1O` [15a, N-[2’,4’-difluoro-4-hydroxy-[1,1’]-biphenyl-3-carbonyl]-L-serine methyl ester] was tested. Which pIC50 did it give?
Its pIC50 is less than 4.30.

With `CCOC(=O)c1cc(-c2ccc(F)cc2F)ccc1O` [4a, 2’,4’-difluoro-4-hydroxy-[1,1’]-biphenyl-3-carboxylic acid ethyl ester] as the molecule, how does the pIC50 read?
Its pIC50 is less than 4.30.

With `NC(=O)c1cc(-c2ccc(F)cc2F)ccc1O` [2a, 2’,4’-difluoro-4-hydroxy-[1,1’]-biphenyl-3-carboxamide] as the molecule, how does the pIC50 read?
The pIC50 was less than 4.30.

`CCOC(=O)[C@H](C)NC(=O)c1cc(-c2ccc(F)cc2F)ccc1O` [11a, N-[2’,4’-difluoro-4-hydroxy-[1,1’]-biphenyl-3-carbonyl]-L-alanine ethyl ester] was tested. Which pIC50 did it give?
Its pIC50 is less than 4.30.

`CC(C)(C)OC(=O)[C@H](CC(N)=O)NC(=O)c1cc(-c2ccc(F)cc2F)ccc1O` [21a, N-[2’,4’-difluoro-4-hydroxy-[1,1’]-biphenyl-3-carbonyl]-L-asparagine tert-butyl ester] was tested. Which pIC50 did it give?
Its pIC50 is less than 4.30.

How did the pIC50 turn out when `COC(=O)CCNC(=O)c1cc(-c2ccc(F)cc2F)ccc1O` [23a, N-[2’,4’-difluoro-4-hydroxy-[1,1’]-biphenyl-3-carbonyl]-β-alanine methyl ester] was run?
The pIC50 was less than 4.30.

How did the pIC50 turn out when `O=C(O)C[C@H](NC(=O)c1cc(-c2ccc(F)cc2F)ccc1O)C(=O)O` [16a, N-[2’,4’-difluoro-4-hydroxy-[1,1’]-biphenyl-3-carbonyl]-L-aspartic] was run?
Its pIC50 is less than 4.30.

`CC(C)C[C@H](NC(=O)c1cc(-c2ccc(F)cc2F)ccc1O)C(=O)O` [12a, N-[2’,4’-difluoro-4-hydroxy-[1,1’]-biphenyl-3-carbonyl]-L-leucine] was tested. Which pIC50 did it give?
The pIC50 was less than 4.30.

With `O=C(O)CCNC(=O)c1cc(-c2ccc(F)cc2F)ccc1O` [22a] as the molecule, how does the pIC50 read?
The pIC50 was less than 4.30.

How did the pIC50 turn out when `NC(=O)c1cc(-c2ccc(F)cc2F)cc(I)c1O` [2b, 2’,4’-difluoro-4-hydroxy-5-iodo-[1,1’]-biphenyl-3-carboxamide] was run?
Its pIC50 is 4.91.

`CC(C)(C)OC(=O)[C@H](CC(N)=O)NC(=O)c1cc(-c2ccc(F)cc2F)cc(I)c1O` [21b, N-[2’,4’-difluoro-4-hydroxy-5-iodo-[1,1’]-biphenyl-3-carbonyl]-L-asparagine tert-butyl ester] was tested. Which pIC50 did it give?
Its pIC50 is 5.01.

How did the pIC50 turn out when `C[C@H](NC(=O)c1cc(-c2ccc(F)cc2F)ccc1O)C(=O)O` [9a, N-[2’,4’-difluoro-4-hydroxy-[1,1’]-biphenyl-3-carbonyl]-L-alanine] was run?
The pIC50 was less than 4.30.

`CC(C)(C)OC(=O)CC(NC(=O)c1cc(-c2ccc(F)cc2F)ccc1O)C(=O)O` [18a, N-[2’,4’-difluoro-4-hydroxy-[1,1’]-biphenyl-3-carbonyl]-L-aspartic β-tert-butyl ester] was tested. Which pIC50 did it give?
Its pIC50 is 4.42.

With `COC(=O)C(CC(=O)OC(C)(C)C)NC(=O)c1cc(-c2ccc(F)cc2F)ccc1O` [19a, N-[2-,4’-difluoro-4-hydroxy-[1,1’]-biphenyl-3-carbonyl]-L-aspartic α-methyl ester and β-tert-butyl ester] as the molecule, how does the pIC50 read?
The pIC50 was less than 4.30.

How did the pIC50 turn out when `NC(Cc1ccc(Oc2ccc(O)cc2)cc1)C(=O)O` (centres unmarked) [T0, thyronine, reference compound] was run?
Its pIC50 is less than 4.30.

With `CC(=O)Oc1ccc(-c2ccc(F)cc2F)cc1C(=O)O` [7a, 4-Acetoxy-2’,4’-difluoro-[1,1’]-biphenyl-3-carboxylic acid] as the molecule, how does the pIC50 read?
Its pIC50 is less than 4.30.

How did the pIC50 turn out when `Oc1c(I)cc(I)cc1I` [TIP, triiodophenol, reference compound] was run?
Its pIC50 is 5.49.

How did the pIC50 turn out when `CC(C)(C)OC(=O)CC(NC(=O)c1cc(-c2ccc(F)cc2F)cc(I)c1O)C(=O)O` [18b, N-[2’,4’-difluoro-4-hydroxy-5-iodo-[1,1’]-biphenyl-3-carbonyl]-L-aspartic β-tert-butyl ester] was run?
Its pIC50 is 5.22.

How did the pIC50 turn out when `CC(C)CC(NC(=O)c1cc(-c2ccc(F)cc2F)ccc1O)C(=O)OC(C)(C)C` [13a, N-[2’,4’-difluoro-4-hydroxy-[1,1’]-biphenyl-3-carbony]-L-leucine tert-butyl ester] was run?
The pIC50 was less than 4.30.

With `COC(=O)[C@H](C)NC(=O)c1cc(-c2ccc(F)cc2F)cc(I)c1O` [10b, N-[2’,4’-difluoro-4-hydroxy-5-iodo-[1,1’]-biphenyl-3-carbonyl] -L-alanine methyl ester] as the molecule, how does the pIC50 read?
The pIC50 was 5.26.
